In brackets after ≈: the same amount, converted by molar mass. Like-named read-outs stand apart in the source and are kept apart here.
Tests used:
E. cloacae A-9659 = experiment: In vitro MIC, tube dilution; format: cell-based; settings: tube dilution, Nutrient Broth, overnight incubation at 37° C.; additional data table
Source text: N-formimidoyl thienamycin was included as a comparison compound.

K. pneumoniae A20468 = experiment: In vitro MIC, tube dilution; format: cell-based; settings: tube dilution, Nutrient Broth, overnight incubation at 37° C.; additional data table
S. pneumoniae A-9585 = experiment: In vitro MIC, tube dilution; format: cell-based; settings: Streptococcus pneumoniae, A9585, Nutrient Broth, overnight incubation at 37° C., additional data table
S. pyogenes A-9604 = experiment: In vitro MIC, tube dilution; format: cell-based; settings: Streptococcus pyogenes, A9604, tube dilution, Nutrient Broth, overnight incubation at 37° C.; additional data table
S. marcescens A20019 = experiment: In vitro MIC, tube dilution; format: cell-based; settings: tube dilution, Nutrient Broth, overnight incubation at 37° C.; additional data table
E. coli A20341-1 = experiment: In vitro MIC, tube dilution; format: cell-based; settings: tube dilution, Nutrient Broth, overnight incubation at 37° C.; additional data table
P. vulgaris A21559 = experiment: In vitro MIC, tube dilution; format: cell-based; settings: tube dilution, Nutrient Broth, overnight incubation at 37° C.; additional data table
P. aeruginosa A-9843A = experiment: In vitro MIC, tube dilution; format: cell-based; settings: Pseudomonas aeruginosa, A9843A, Nutrient Broth, overnight incubation at 37° C., additional data table
P. mirabilis A-9900 = experiment: In vitro MIC, tube dilution; format: cell-based; settings: Proteus mirabilis, A9900, tube dilution, Nutrient Broth, overnight incubation at 37° C.; additional data table
P. rettgeri A22424 = experiment: In vitro MIC, tube dilution; format: cell-based; settings: tube dilution, Nutrient Broth, overnight incubation at 37° C.; additional data table
[1] = Half-life in phosphate buffer solution; format: physicochemical; settings: 0.065 M, pH 7.4 phosphate buffer, 37° C.; listed as Fraction B
Method: A solution of para-nitrobenzyl 3-[2-(N-methylthiomorpholinium diphenylphosphate)ethylthio]-6α-[1'-(R)-hydroxyethyl]-7-oxo-1-azabicyclo[3.2.0]hept-2-ene-2-carboxylate (1.31 g, 1.76 mmol) in 0.1 M pH 7.4 phosphate buffer (48.8 mL), tetrahydrofuran (20 mL) and diethyl ether (20 mL) was hydrogenated over 10% pd/C (1.5 g) in a Parr shaker for 1 h at 40 psi. The reaction mixture was diluted with diethyl ether (40 mL) and the phases were separated. The organic phase was washed with water (2×5 mL). The aqueous phases were combined, filtered through a #52 hardened filter paper, washed with diethyl ether (2×20 mL) and pumped under vacuum. The aqueous solution was poured on a silica gel reverse phase column and the desired carbapenem was eluted with 5% acetonitrile-water.
To a solution of p-nitrobenzyl (5R,6S)-3-[2-(1-methylmorpholino)ethylthio]-6-[(R)-1-hydroxyethyl]-7-oxo-1-azabicyclo[3.2.0]hept-2-ene-2-carboxylate diphenylphosphate (0.360 g, 0.49 mmol) in 13 mL of phosphate buffer (0.05 M pH 7.4) was added 0.36 g of 10% palladium-on-charcoal, 20 mL of tetrahydrofuran and 20 mL of diethyl ether. This mixture was hydrogenated (Parr) at 32 psi for 1 h. The mixture was filtered through Celite and the filter pad was washed with H2 O and diethyl ether. The aqueous phase was separated and the pH was adjusted to 7.0 with additional pH 7.4 phosphate buffer. After removing residual organic solvents in vacuo the aqueous solution was applied to a C18 reverse-phase column.
To a solution of (5R,6S)paranitrobenzyl 3-[2-(1,4-dimethyl-1-piperazinium)ethylthio]-6-[1-(R)-hydroxyethyl]-7-oxo- 1-azabicyclo[3.2.0]hept-2-ene-2-carboxylate diphenylphosphate (0.47 g, 0.623 mmol) in wet tetrahydrofuran (25 mL) was added diethyl ether (25 mL), potassium phosphate monobasic-sodium hydroxide buffer (13 mL, pH 7.22) and 10% palladium on charcoal (0.47 g). The resulting mixture was hydrogenated at 23° C. under 40 psi for 1 h. The two layers were separated and the organic layer was extracted with water (2×7 mL).
To a cold (-10° C.) solution of (5R,6S)-3-[2 -(N-methyl-thiomorpholinium)ethylthio]-6-[1-(R)-hydroxyethyl]-7-oxo-1-azabicyclo(3.2.0)-hept-2-ene-2-carboxylate (608 mg, 1.65 mmol) in a 1:1 mixture of acetonitrile-water (9 mL) was added m-chloroperbenzoic acid (334.8 mg, 1.65 mmol) in small portion over a 1 hour period. The mixture was then diluted with water (15 mL) and washed with diethyl ether (3×15 mL).
A mixture of (5R,6S) paranitrobenzyl 3-[2-(1,4,4-trimethyl-1-piperazinium)ethylthio]-6-[1R-hydroxyethyl]-7-oxo- 1-azabicyclo(3.2.0)hept-2-ene-2-carboxylate bischloride (0.40 g, 0.68 mmol), phosphate buffer (30 mL, 0.05M, pH 7.0), tetrahydrofuran (10 mL), ether (30 mL) and 10% palladium on charcoal (0.40 g) was hydrogenated at 23° C. under 35 psi for 1 h. The two phases were separated. The organic phase was extracted with water (10 mL).

S. aureus A-9537 = experiment: In vitro MIC, tube dilution; format: cell-based; settings: Staphylococcus aureus, overnight incubation at 37° C., additional data table
[2] = tested on: S. aureus A-9606 (Pen-res.); experiment: In vitro MIC, tube dilution; format: cell-based; settings: Staphylococcus aureus, Nutrient Broth, overnight incubation at 37° C., additional data table, read-out: MIC S. aureus (Pen-res.) A-9606
[3] = Urinary recovery after intramuscular administration to mice; format: in vivo; settings: mouse, intramuscular dose of 20 mg/kg, 0-6 hour collection, 360 min
Method: Compounds were solubilized in 0.1 M phosphate buffer pH 7. Values are from a single test; 4 mice per compound.
(§1) Also shown is the urinary recovery in the mice.
***Recovery based on 0-6 hour collection

S. faecalis A20688 = experiment: In vitro MIC, tube dilution; format: cell-based; settings: tube dilution, Nutrient Broth, overnight incubation at 37° C.; additional data table
E. cloacae A-9656 = experiment: In vitro MIC, tube dilution; format: cell-based; settings: Enterobacter cloacae, A9656, tube dilution, Nutrient Broth, overnight incubation at 37° C.; additional data table
P. morganii A15153 = experiment: In vitro MIC, tube dilution; format: cell-based; settings: tube dilution, Nutrient Broth, overnight incubation at 37° C.; additional data table
E. coli A15119 = experiment: In vitro MIC, tube dilution; format: cell-based; settings: tube dilution, Nutrient Broth, overnight incubation at 37° C.; additional data table
K. pneumoniae A-9664 = experiment: In vitro MIC, tube dilution; format: cell-based; settings: tube dilution, Nutrient Broth, overnight incubation at 37° C.; additional data table
[4] = Blood levels in mice after intramuscular administration; format: in vivo; settings: mouse, intramuscular dose of 20 mg/kg; 20 mg/kg
Source text: Compounds were solubilized in 0.1 M phosphate buffer pH 7. Values are fro
a single test; 4 mice used per compound.
*t1/2 refers to halflife in minutes
**AUC refers to the area under the blood concentrationtime curve
as §1
Compounds were solubilized in 0.1 M phosphate buffer, pH 7.
Values based on a single test; 4 mice per compound.
*T1/2 refers to halflife in minutes

P. aeruginosa A21213 = experiment: In vitro MIC, tube dilution; format: cell-based; settings: Pseudomonas aeruginosa, A21213, tube dilution, Nutrient Broth, overnight incubation at 37° C.; additional data table
S. aureus A-9606 = experiment: Protective effect in the intramuscular treatment of infected mice (PD50); format: in vivo; settings: Staphylococcus aureus, A9606, im; mice infected i.p. (Ex. 2: 2 × 10^9 organisms; Ex. 4 and 5: ~9 × 10^7), treated i.m. 0 and 2 h postinfection; read-out: PD50/treatment, S. aureus A-9606
Method: The PD50 (dose in mg/kg required to give protection to 50% of the infected mice) is indicated.
were treated i.m. with drugs 0 and 2 h postinfection.

**Q.** What does the source list for `C[C@@H](O)[C@H]1C(=O)N2C(C(=O)[O-])=C(SCC[N+]3(C)CC[S+]([O-])CC3)C[C@H]12` (single isomer, unassigned) [Ex. 5 comp. B]?
**A.** MIC E. cloacae A-9659 (E. cloacae A-9659): 0.5 mg/L (≈ 1.29 µM); MIC K. pneumoniae A20468 (K. pneumoniae A20468): 0.5 mg/L (≈ 1.29 µM); MIC (S. pneumoniae A-9585): 0.004 mg/L (≈ 0.0103 µM); MIC (S. pyogenes A-9604): 0.008 mg/L (≈ 0.0206 µM); MIC S. marcescens A20019 (S. marcescens A20019): 0.25 mg/L (≈ 0.643 µM); MIC E. coli A20341-1 (E. coli A20341-1): 0.13 mg/L (≈ 0.335 µM); MIC P. vulgaris A21559 (P. vulgaris A21559): 0.25 mg/L (≈ 0.643 µM); MIC (P. aeruginosa A-9843A): 63 mg/L (≈ 162 µM); MIC (P. mirabilis A-9900): 0.25 mg/L (≈ 0.643 µM); MIC P. rettgeri A22424 (P. rettgeri A22424): 1 mg/L (≈ 2.57 µM); T 1/2 (solution stability) [1]: 10.75 h; MIC (S. aureus A-9537; A9537, 50% serum, tube dilution, read-out: MIC S. aureus-50% serum A-9537): 0.06 mg/L (≈ 0.154 µM); MIC (S. aureus A-9537; A9537, tube dilution, Nutrient Broth, read-out: MIC S. aureus A-9537): 0.03 mg/L (≈ 0.0772 µM); MIC [2]: 0.06 mg/L (≈ 0.154 µM); Urine Recovery [3]: 15 ± 3%; MIC S. faecalis A20688 (S. faecalis A20688): 1 mg/L (≈ 2.57 µM); MIC (E. cloacae A-9656): 0.25 mg/L (≈ 0.643 µM); MIC M. morganii A15153 (P. morganii A15153): 0.5 mg/L (≈ 1.29 µM); MIC E. coli A15119 (E. coli A15119): 0.13 mg/L (≈ 0.335 µM); MIC K. pneumoniae A-9664 (K. pneumoniae A-9664): 0.25 mg/L (≈ 0.643 µM); Blood AUC [4]: 4.6 µg·h/mL; Blood Cmax [4]: 12.6 µg/mL; Blood T1/2 [4]: 0.167 h; MIC (P. aeruginosa A21213): 32 mg/L (≈ 82.4 µM); ED50 (S. aureus A-9606): 0.39 mg/kg

Reference: patent US4536335A, “Carbapenem antibiotics” (Bristol-Myers Company, priority 1983, dated 1985)
